Legend:
blackgrass = assay: Test B pre/postemergence blackgrass; assay type: in vivo, Alopecurus myosuroides
How it was run: (§1)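 Response is a visual 0-to-10 score relative to untreated plants, where 0 means no effect and 10 means complete control, taken twelve to sixteen days after application. Treatments went onto soil at planting and onto foliage of 1- to 4-leaf plants, using a surfactant-containing non-phytotoxic solvent.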

surinam grass = assay: Test B pre/postemergence surinam grass; assay type: in vivo, Brachiaria decumbens
How it was run: as §1

sugar beet = assay: Test B pre/postemergence sugar beet; assay type: in vivo, Beta vulgaris
How it was run: as §1

bamyardgrass = assay: Test B flood test barnyardgrass; assay type: in vivo, Echinochloa crus-galli; settings: for Plant response rating, Barnyardgrass (0 to 10 scale, 0 is no effect, 10 is complete control): Rate 62 g/ha, Pre-emergence; for Plant response rating, Barnyardgrass (0 to 10 scale, 0 is no effect, 10 is complete control) / Barnyardgrass plant response rating (0 to 10 scale, 0 is no effect, 10 is complete control): flood test species, visual evaluation after twelve to sixteen days; for Barnyardgrass plant response rating (0 to 10 scale, 0 is no effect, 10 is complete control): Rate 125 g/ha, under heading Pre-emergence
How it was run: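 Plants were grown to the 2-leaf stage before treatment with test chemical, then held in a greenhouse for twelve to sixteen days. Injury was visually rated against untreated controls on a 0–10 scale, where 0 is no effect and 10 is complete control.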

[1] = Postemergence, Rate 62 g/ha, scale of 0 to 10, 0 is no effect, 10 is complete control
[2] = Postemergence, Rate 125 g/ha, scale 0 to 10, 0 is no effect, 10 is complete control
[3] = Postemergence, Rate 500 g/ha, scale 0 to 10, 0 is no effect, 10 is complete control
[4] = Preemergence, Rate 62 g/ha, scale 0 to 10 (0 no effect, 10 complete control)
[5] = Preemergence, Rate 125 g/ha, scale 0 to 10, 0 is no effect, 10 is complete control
[6] = Preemergence, Rate 500 g/ha, scale of 0 to 10 where 0 is no effect and 10 is complete control
[7] = Rate 250 g/ha, Postemergence, scale of 0 to 10 where 0 is no effect and 10 is complete control
[8] = Rate 250 g/ha, Pre-emergence (flood test species), scale 0 to 10, 0 is no effect, 10 is complete control
[9] = Rate 500 g/ha, Pre-emergence section of Table B, 0 to 10 scale (0 no effect, 10 complete control)
[10] = Postemergence, Rate 500 g/ha, scale of 0 to 10 where 0 is no effect and 10 is complete control
[11] = Postemergence, Rate 62 g/ha, scale 0 to 10, 0 is no effect, 10 is complete control
[12] = Postemergence, Rate 125 g/ha, scale of 0 to 10 where 0 is no effect and 10 is complete control
[13] = Postemergence, Rate 250 g/ha, scale of 0 to 10, 0 is no effect, 10 is complete control
[14] = Preemergence, Rate 125 g/ha, scale of 0 to 10 where 0 is no effect and 10 is complete control
[15] = Preemergence, Rate 62 g/ha, scale of 0 to 10 where 0 is no effect and 10 is complete control
[16] = Preemergence, Rate 250 g/ha, scale 0 to 10 (0 no effect, 10 complete control)

CC(C)N(C(=O)n1oc(=O)n(CC2CCC2)c1=O)c1ccc(Cl)cc1 [Compound 550]
Blackgrass plant response rating (blackgrass; [1]): 0 | Blackgrass plant response rating (blackgrass; [2]): 0 | Plant response rating, Blackgrass (blackgrass; [3]): 2 | Blackgrass plant response rating (blackgrass; [4]): 0 | Blackgrass plant response rating (blackgrass; [5]): 2 | Blackgrass plant response rating (0 to 10 scale) (blackgrass; Preemergence, Rate 250 g/ha): 7 | Blackgrass plant response rating (blackgrass; [6]): 9 | Plant response rating, Blackgrass (blackgrass; [7]): 2 | B. signalgrass plant response rating (surinam grass; [1]): 0 | B. signalgrass plant response rating (surinam grass; [2]): 0 | Plant response rating, B. signalgrass (surinam grass; [3]): 2 | B. signalgrass plant response rating (surinam grass; [4]): 6 | B. signalgrass plant response rating (surinam grass; [5]): 9 | B. signalgrass plant response rating (0 to 10 scale, 0 is no effect, 10 is complete control) (surinam grass; Preemergence, Rate 250 g/ha): 9 | B. signalgrass plant response rating (surinam grass; [6]): 10 | Plant response rating, B. signalgrass (surinam grass; [7]): 2 | Sugarbeets plant response rating (sugar beet; [1]): 0 | Sugarbeets plant response rating (sugar beet; [2]): 0 | Plant response rating, Sugarbeets (sugar beet; [3]): 5 | Sugarbeets plant response rating (sugar beet; [4]): 0 | Sugarbeets plant response rating (sugar beet; [5]): 0 | Sugarbeets plant response rating (0 to 10 scale) (sugar beet; Preemergence, Rate 250 g/ha): 5 | Sugarbeets plant response rating (sugar beet; [6]): 8 | Plant response rating, Sugarbeets (sugar beet; [7]): 2 | Plant response rating, Barnyardgrass (0 to 10 scale, 0 is no effect, 10 is complete control) (bamyardgrass): 0 | Barnyardgrass plant response rating (0 to 10 scale, 0 is no effect, 10 is complete control) (bamyardgrass): 0 | Barnyardgrass plant response rating (bamyardgrass; [8]): 0 | Barnyardgrass plant response rating (bamyardgrass; [9]): 0

CC(C)N(C(=O)n1oc(=O)n(CCc2ccccc2)c1=O)c1ccccc1 [Compound 567]
Blackgrass plant response rating (blackgrass; [1]): 0 | Blackgrass plant response rating (blackgrass; [2]): 0 | Plant response rating, Blackgrass (blackgrass; [10]): 0 | Blackgrass plant response rating (blackgrass; [4]): 0 | Blackgrass plant response rating (blackgrass; [5]): 0 | Blackgrass plant response rating (0 to 10 scale) (blackgrass; Preemergence, Rate 250 g/ha): 0 | Blackgrass plant response rating (blackgrass; [6]): 7 | Plant response rating, Blackgrass (blackgrass; [7]): 0 | B. signalgrass plant response rating (surinam grass; [1]): 0 | B. signalgrass plant response rating (surinam grass; [2]): 0 | Plant response rating, B. signalgrass (surinam grass; [10]): 0 | B. signalgrass plant response rating (surinam grass; [4]): 0 | B. signalgrass plant response rating (surinam grass; [5]): 0 | B. signalgrass plant response rating (0 to 10 scale, 0 is no effect, 10 is complete control) (surinam grass; Preemergence, Rate 250 g/ha): 2 | B. signalgrass plant response rating (surinam grass; [6]): 9 | Plant response rating, B. signalgrass (surinam grass; [7]): 0 | Plant response rating, Sugarbeets (sugar beet; [10]): 0 | Sugarbeets plant response rating (sugar beet; [4]): 0 | Sugarbeets plant response rating (sugar beet; [5]): 0 | Sugarbeets plant response rating (0 to 10 scale) (sugar beet; Preemergence, Rate 250 g/ha): 0 | Sugarbeets plant response rating (sugar beet; [6]): 2 | Plant response rating, Sugarbeets (sugar beet; [7]): 0 | Plant response rating, Barnyardgrass (0 to 10 scale, 0 is no effect, 10 is complete control) (bamyardgrass): 0 | Barnyardgrass plant response rating (0 to 10 scale, 0 is no effect, 10 is complete control) (bamyardgrass): 0 | Barnyardgrass plant response rating (bamyardgrass; [8]): 0 | Barnyardgrass plant response rating (bamyardgrass; [9]): 0

C#CC(C)n1c(=O)on(C(=O)N(c2ccccc2)C(C)C)c1=O (stereo not drawn) [Compound 609]
Plant response rating, Blackgrass (blackgrass; [11]): 5 | Plant response rating, Blackgrass (blackgrass; [12]): 8 | Blackgrass plant response rating (blackgrass; [13]): 8 | Plant response rating, Blackgrass (blackgrass; [10]): 8 | Blackgrass plant response rating (blackgrass; [4]): 7 | Blackgrass plant response rating (blackgrass; [14]): 8 | Blackgrass plant response rating (0 to 10 scale) (blackgrass; Preemergence, Rate 250 g/ha): 9 | Blackgrass plant response rating (blackgrass; [6]): 10 | Plant response rating, B. signalgrass (surinam grass; [11]): 0 | Plant response rating, B. signalgrass (surinam grass; [12]): 1 | B. signalgrass plant response rating (surinam grass; [13]): 5 | Plant response rating, B. signalgrass (surinam grass; [10]): 8 | B. signalgrass plant response rating (surinam grass; [4]): 3 | B. signalgrass plant response rating (surinam grass; [14]): 6 | B. signalgrass plant response rating (0 to 10 scale, 0 is no effect, 10 is complete control) (surinam grass; Preemergence, Rate 250 g/ha): 9 | B. signalgrass plant response rating (surinam grass; [6]): 10 | Plant response rating, Sugarbeets (sugar beet; [11]): 0 | Plant response rating, Sugarbeets (sugar beet; [12]): 0 | Sugarbeets plant response rating (sugar beet; [13]): 0 | Plant response rating, Sugarbeets (sugar beet; [10]): 1 | Sugarbeets plant response rating (sugar beet; [4]): 0 | Sugarbeets plant response rating (sugar beet; [14]): 3 | Plant response rating, Sugarbeets (sugar beet; [6]): 8 | Plant response rating, Barnyardgrass (0 to 10 scale, 0 is no effect, 10 is complete control) (bamyardgrass): 0 | Barnyardgrass plant response rating (0 to 10 scale, 0 is no effect, 10 is complete control) (bamyardgrass): 0 | Barnyardgrass plant response rating (bamyardgrass; [8]): 0 | Barnyardgrass plant response rating (bamyardgrass; [9]): 0

CC(C)N(C(=O)n1oc(=O)n(CCC(=O)N(C)C)c1=O)c1ccc(F)cc1 [Compound 638]
Plant response rating, Blackgrass (blackgrass; [11]): 0 | Plant response rating, Blackgrass (blackgrass; [12]): 4 | Blackgrass plant response rating (blackgrass; [13]): 6 | Plant response rating, Blackgrass (blackgrass; [10]): 7 | Blackgrass plant response rating (blackgrass; [15]): 4 | Blackgrass plant response rating (blackgrass; [14]): 5 | Plant response rating, Blackgrass (blackgrass; [16]): 9 | Plant response rating, Blackgrass (blackgrass; [6]): 9 | Plant response rating, B. signalgrass (surinam grass; [11]): 0 | Plant response rating, B. signalgrass (surinam grass; [12]): 4 | B. signalgrass plant response rating (surinam grass; [13]): 6 | Plant response rating, B. signalgrass (surinam grass; [10]): 6 | B. signalgrass plant response rating (surinam grass; [15]): 4 | B. signalgrass plant response rating (surinam grass; [14]): 7 | Plant response rating, B. signalgrass (surinam grass; [16]): 8 | Plant response rating, B. signalgrass (surinam grass; [6]): 8 | Plant response rating, Sugarbeets (sugar beet; [11]): 0 | Plant response rating, Sugarbeets (sugar beet; [12]): 0 | Sugarbeets plant response rating (sugar beet; [13]): 0 | Sugarbeets plant response rating (sugar beet; [15]): 0 | Sugarbeets plant response rating (sugar beet; [14]): 6 | Plant response rating, Sugarbeets (sugar beet; [16]): 6 | Plant response rating, Sugarbeets (sugar beet; [6]): 10 | Plant response rating, Barnyardgrass (0 to 10 scale, 0 is no effect, 10 is complete control) (bamyardgrass): 0 | Barnyardgrass plant response rating (0 to 10 scale, 0 is no effect, 10 is complete control) (bamyardgrass): 0 | Barnyardgrass plant response rating (bamyardgrass; [8]): 0 | Barnyardgrass plant response rating (bamyardgrass; [9]): 0

CC(C)N(C(=O)n1oc(=O)n(CC(=O)C2CCC2)c1=O)c1ccc(F)cc1F [Compound 642]
Plant response rating, Blackgrass (blackgrass; [11]): 0 | Blackgrass plant response rating (blackgrass; [12]): 0 | Blackgrass plant response rating (blackgrass; [13]): 6 | Plant response rating, Blackgrass (blackgrass; [10]): 6 | Blackgrass plant response rating (blackgrass; [15]): 0 | Blackgrass plant response rating (blackgrass; [14]): 0 | Plant response rating, Blackgrass (blackgrass; [16]): 4 | Plant response rating, Blackgrass (blackgrass; [6]): 7 | Plant response rating, B. signalgrass (surinam grass; [11]): 0 | Plant response rating, B. signalgrass (surinam grass; [12]): 0 | B. signalgrass plant response rating (surinam grass; [13]): 0 | Plant response rating, B. signalgrass (surinam grass; [10]): 0 | B. signalgrass plant response rating (surinam grass; [15]): 0 | B. signalgrass plant response rating (surinam grass; [14]): 2 | Plant response rating, B. signalgrass (surinam grass; [16]): 5 | Plant response rating, B. signalgrass (surinam grass; [6]): 8 | Plant response rating, Sugarbeets (sugar beet; [11]): 0 | Sugarbeets plant response rating (sugar beet; [12]): 0 | Sugarbeets plant response rating (sugar beet; [13]): 0 | Sugarbeets plant response rating (sugar beet; [15]): 0 | Sugarbeets plant response rating (sugar beet; [14]): 0 | Plant response rating, Sugarbeets (sugar beet; [16]): 0 | Plant response rating, Sugarbeets (sugar beet; [6]): 4 | Plant response rating, Barnyardgrass (0 to 10 scale, 0 is no effect, 10 is complete control) (bamyardgrass): 0 | Barnyardgrass plant response rating (0 to 10 scale, 0 is no effect, 10 is complete control) (bamyardgrass): 0 | Barnyardgrass plant response rating (bamyardgrass; [8]): 0 | Barnyardgrass plant response rating (bamyardgrass; [9]): 0

From patent publication US6737383B1, “Herbicidal oxadiazolidines” (priority 1999, dated 2004)
